Measured values: patent US10407430B2, “Janus kinase 1 selective inhibitor and pharmaceutical use thereof” (YANG JI CHEMICAL CO., LTD., priority 2015, dated 2019)

Tests used:
Type in all cases: biochemical
Human JAK2 = target: T1, Human JAK2 (Homo sapiens, UniProt O60674); test: In-vitro kinase inhibition test, JAK2; settings: compound at 1 uM; read-out: JAK2 kinase-phosphorylation inhibitory level (% inhibition)
T1 construct: purchased Millipore, Germany
Protocol: (§1) Human-derived JAK1, JAK2, JAK3 and TYK2 (Millipore, Germany) were used as kinases. Each kinase was diluted with an appropriate buffer as described below, and then mixed with reaction reagents.
(§2) 3-morpholinopropane-1-sulfonic acid (MOPS) and EDTA were dissolved in deionized water at a concentration of 20 mM and 1 mM, respectively, and then 100 μL of β-mercaptoethanol, 10 μL of Brij-35™, 5 mL of glycerol, and 100 mg of bovine serum albumin (BSA), each per 100 mL of the solution, were added to the solution, thereby preparing a dilution buffer for JAK2, JAK3, and TYK2.
(§3) Each compound was dissolved in a 100%-DMSO solution at a concentration of about 50 μM. This prepared solution was reacted with reaction reagents in each well of a 96-well plate until a final concentration of the compound reached 1 μM. A detailed experimental method for each kinase is as follows.
(§4) After reaction for about 40 minutes at room temperature, the reaction was stopped by adding 5 uL of a 3% (v/v) phosphoric acid solution.
(§5) The inhibitory levels (% inhibition) represent a percentage of reduction in phosphorylation activity in each test group with respect to the phosphorylation activity of a corresponding kinase in a negative control group lacking any of the compounds synthesized in the examples. % inhibition=[(Scintillation value of Test compound non-treatment group−Scintillation value of Test compound treatment group)/(Scintillation value of Test compound non-treatment group)]×100

Human JAK3 = target: T2, Human JAK3 (Homo sapiens, UniProt P52333); test: In-vitro kinase inhibition test, JAK3; settings: compound at 1 uM; read-out: JAK3 kinase-phosphorylation inhibitory level (% inhibition)
T2 construct: purchased Millipore, Germany
T2 sequence (P52333 1-1124): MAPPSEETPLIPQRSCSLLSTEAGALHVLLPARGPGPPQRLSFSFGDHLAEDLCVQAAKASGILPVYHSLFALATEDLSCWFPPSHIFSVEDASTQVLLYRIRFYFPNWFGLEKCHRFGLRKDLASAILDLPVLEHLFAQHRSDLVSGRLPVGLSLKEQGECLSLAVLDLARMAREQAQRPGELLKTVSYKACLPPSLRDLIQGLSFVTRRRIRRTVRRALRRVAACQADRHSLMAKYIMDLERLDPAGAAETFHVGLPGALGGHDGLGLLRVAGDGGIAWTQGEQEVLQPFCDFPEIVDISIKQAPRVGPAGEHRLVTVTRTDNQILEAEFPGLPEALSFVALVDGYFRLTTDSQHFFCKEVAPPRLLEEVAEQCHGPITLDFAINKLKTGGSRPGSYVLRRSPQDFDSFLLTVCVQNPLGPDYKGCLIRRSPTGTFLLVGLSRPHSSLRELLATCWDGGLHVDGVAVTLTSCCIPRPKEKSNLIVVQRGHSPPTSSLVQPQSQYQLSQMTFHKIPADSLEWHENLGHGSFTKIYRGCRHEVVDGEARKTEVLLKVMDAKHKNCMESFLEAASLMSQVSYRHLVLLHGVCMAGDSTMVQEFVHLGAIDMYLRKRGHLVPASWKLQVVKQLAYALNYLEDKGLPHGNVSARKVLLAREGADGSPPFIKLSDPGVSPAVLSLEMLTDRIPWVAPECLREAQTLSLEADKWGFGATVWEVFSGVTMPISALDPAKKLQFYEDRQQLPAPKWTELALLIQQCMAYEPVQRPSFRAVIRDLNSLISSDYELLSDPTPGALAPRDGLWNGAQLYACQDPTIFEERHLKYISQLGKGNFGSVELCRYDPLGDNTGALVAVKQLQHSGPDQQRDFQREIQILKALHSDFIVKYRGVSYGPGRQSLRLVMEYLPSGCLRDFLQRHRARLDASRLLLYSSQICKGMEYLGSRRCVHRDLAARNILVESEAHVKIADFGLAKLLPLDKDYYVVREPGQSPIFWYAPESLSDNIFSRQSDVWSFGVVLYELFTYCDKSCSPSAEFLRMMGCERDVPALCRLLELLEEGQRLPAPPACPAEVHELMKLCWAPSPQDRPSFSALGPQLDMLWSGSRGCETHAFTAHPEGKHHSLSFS

Human JAK1 = target: T3, Human JAK1 (Homo sapiens, UniProt P23458); test: In-vitro kinase inhibition test, JAK1; settings: for inhibition at 1 µM: compound at 1 uM, read-out: JAK1 kinase-phosphorylation inhibitory level (% inhibition); for JAK1/JAK2: ratio of % inhibition of JAK1 to JAK2 at 1 uM
T3 construct: purchased Millipore, Germany
T3 sequence (P23458 whole entry): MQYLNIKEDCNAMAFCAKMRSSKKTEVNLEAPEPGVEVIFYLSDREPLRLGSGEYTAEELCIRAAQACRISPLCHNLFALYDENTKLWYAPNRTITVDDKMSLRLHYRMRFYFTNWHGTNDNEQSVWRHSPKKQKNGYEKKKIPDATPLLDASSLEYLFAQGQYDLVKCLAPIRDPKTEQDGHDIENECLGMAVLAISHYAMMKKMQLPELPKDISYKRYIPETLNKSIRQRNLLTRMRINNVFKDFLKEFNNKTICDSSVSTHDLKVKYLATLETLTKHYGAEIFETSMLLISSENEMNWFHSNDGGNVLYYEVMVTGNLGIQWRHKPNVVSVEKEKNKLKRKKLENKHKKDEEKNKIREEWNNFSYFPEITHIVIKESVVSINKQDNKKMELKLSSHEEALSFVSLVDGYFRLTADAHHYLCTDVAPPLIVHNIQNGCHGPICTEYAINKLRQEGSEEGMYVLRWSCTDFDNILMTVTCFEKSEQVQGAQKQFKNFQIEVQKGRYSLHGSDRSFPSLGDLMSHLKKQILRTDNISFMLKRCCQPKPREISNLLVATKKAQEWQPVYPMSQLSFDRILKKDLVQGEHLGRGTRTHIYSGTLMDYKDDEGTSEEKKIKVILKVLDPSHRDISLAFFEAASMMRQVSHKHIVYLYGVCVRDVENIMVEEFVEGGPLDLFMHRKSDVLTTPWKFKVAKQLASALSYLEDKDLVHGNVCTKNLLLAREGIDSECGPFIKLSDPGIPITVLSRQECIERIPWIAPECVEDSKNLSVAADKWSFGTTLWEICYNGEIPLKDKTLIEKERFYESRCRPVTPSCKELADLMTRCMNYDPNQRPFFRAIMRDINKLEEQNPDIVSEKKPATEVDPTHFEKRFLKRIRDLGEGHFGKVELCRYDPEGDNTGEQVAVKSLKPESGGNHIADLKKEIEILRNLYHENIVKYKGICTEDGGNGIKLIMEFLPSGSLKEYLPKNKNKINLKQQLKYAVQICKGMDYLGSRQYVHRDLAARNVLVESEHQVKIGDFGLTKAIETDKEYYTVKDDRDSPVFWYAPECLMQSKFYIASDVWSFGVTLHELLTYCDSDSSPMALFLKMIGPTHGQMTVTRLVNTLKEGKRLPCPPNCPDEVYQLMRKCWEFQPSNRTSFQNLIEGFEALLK

Human TYK2 = target: T4, Human TYK2 (Homo sapiens, UniProt P29597); test: In-vitro kinase inhibition test, TYK2; settings: compound at 1 uM; read-out: TYK2 kinase-phosphorylation inhibitory level (% inhibition)
T4 construct: purchased Millipore, Germany
T4 sequence (P29597 whole entry): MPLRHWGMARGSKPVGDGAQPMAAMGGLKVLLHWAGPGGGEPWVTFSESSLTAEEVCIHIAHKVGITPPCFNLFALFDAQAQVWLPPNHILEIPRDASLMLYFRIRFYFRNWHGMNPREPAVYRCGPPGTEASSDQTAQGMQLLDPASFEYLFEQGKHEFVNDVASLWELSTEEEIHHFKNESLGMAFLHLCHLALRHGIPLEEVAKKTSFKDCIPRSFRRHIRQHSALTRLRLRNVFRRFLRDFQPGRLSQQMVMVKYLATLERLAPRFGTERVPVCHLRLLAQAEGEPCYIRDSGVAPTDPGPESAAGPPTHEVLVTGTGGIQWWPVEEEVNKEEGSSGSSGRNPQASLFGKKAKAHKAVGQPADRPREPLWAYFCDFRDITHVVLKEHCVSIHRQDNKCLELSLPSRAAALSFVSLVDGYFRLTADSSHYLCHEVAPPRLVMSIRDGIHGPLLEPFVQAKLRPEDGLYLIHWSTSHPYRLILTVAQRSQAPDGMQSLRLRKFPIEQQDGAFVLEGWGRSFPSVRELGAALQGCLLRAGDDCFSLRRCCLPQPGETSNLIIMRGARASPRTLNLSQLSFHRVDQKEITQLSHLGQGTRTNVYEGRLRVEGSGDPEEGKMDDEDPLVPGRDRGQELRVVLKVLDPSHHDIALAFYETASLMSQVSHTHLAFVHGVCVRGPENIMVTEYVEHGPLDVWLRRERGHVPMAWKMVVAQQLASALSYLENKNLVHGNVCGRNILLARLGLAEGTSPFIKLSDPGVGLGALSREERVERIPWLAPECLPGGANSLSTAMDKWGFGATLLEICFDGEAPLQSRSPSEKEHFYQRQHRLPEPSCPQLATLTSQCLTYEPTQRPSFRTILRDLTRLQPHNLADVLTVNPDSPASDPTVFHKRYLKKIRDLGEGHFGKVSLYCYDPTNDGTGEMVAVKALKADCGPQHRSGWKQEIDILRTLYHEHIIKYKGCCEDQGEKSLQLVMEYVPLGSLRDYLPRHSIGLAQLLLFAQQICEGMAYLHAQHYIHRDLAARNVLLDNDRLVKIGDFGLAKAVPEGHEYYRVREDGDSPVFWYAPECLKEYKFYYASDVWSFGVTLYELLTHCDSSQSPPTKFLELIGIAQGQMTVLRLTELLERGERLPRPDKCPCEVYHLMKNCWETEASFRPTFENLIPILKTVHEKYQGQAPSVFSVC
Protocol: as §1, §2, §3, §4, §5

T1 sequence (O60674 whole entry): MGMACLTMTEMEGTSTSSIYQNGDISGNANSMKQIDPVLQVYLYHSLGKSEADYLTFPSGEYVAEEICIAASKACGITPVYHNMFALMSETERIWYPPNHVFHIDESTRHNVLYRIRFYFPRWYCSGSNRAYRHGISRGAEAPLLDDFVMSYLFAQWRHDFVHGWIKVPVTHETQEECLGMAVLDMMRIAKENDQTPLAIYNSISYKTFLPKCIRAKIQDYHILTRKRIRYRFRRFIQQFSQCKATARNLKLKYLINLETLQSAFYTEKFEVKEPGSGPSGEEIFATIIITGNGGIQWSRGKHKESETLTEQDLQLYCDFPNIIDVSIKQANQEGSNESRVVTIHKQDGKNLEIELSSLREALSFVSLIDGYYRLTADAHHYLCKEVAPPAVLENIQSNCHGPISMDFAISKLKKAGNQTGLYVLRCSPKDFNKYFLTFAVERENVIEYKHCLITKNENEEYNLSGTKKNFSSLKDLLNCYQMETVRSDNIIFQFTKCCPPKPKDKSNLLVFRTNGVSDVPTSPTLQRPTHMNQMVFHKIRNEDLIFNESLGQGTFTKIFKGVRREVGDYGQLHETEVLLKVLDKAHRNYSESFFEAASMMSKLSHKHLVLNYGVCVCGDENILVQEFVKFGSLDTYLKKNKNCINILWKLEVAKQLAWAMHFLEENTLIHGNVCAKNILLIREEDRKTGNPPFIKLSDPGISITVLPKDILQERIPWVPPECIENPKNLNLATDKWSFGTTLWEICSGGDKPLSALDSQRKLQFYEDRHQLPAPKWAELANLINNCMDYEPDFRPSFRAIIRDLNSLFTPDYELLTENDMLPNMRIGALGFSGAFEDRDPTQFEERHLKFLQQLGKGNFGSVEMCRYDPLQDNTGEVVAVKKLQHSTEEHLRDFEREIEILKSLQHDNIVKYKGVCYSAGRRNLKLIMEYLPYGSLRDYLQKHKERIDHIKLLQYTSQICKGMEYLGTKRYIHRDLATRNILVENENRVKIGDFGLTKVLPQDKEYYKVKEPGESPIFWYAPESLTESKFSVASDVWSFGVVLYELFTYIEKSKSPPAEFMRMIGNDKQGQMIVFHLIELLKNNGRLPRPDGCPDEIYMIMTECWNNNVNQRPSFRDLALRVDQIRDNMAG

Row | inhibition at 1 µM (Human JAK2) | inhibition at 1 µM (Human JAK3) | inhibition at 1 µM (Human JAK1) | inhibition at 1 µM (Human TYK2) | JAK1/JAK2 (Human JAK1) | SMILES
1 | 62% | 20% | 95% | 78% | 1.55 | CCCS(=O)(=O)N1CC[C@@H](N(C)c2ncnc3[nH]ccc23)C1 [Example 11, (R)—N-methyl-N-(1-(propylsulfonyl)pyrrolidine-3-yl)-7H-pyrrolo[2,3-d]pyrimidine-4-amine]
2 | 11% | 13% | 86% | 47% | 7.82 | CC(C)S(=O)(=O)N1CC[C@@H](N(C)c2ncnc3[nH]ccc23)C1 [Example 12, (R)—N-(1-(isopropylsulfonyl)pyrrolidine-3-yl)-N-methyl-7H-pyrrolo[2,3-d]pyrimidine-4-amine]
3 | 9% | 4% | 52% | 17% | 5.78 | CN(c1ncnc2[nH]ccc12)[C@@H]1CCN(S(=O)(=O)c2cn(C)cn2)C1 [Example 13, (R)—N-methyl-N-(1-((1-methyl-1H-imidazole-4-yl)sulfonyl)pyrrolidine-3-yl)-7H-pyrrolo[2,3-d]pyrimidine-4-amine]
4 | 69% | 17% | 99% | 91% | 1.43 | CN(c1ncnc2[nH]ccc12)[C@@H]1CCN(S(=O)(=O)c2ccccc2)C1 [Example 14, (R)—N-methyl-N-(1-(phenylsulfonyl)pyrrolidine-3-yl)-7H-pyrrolo[2,3-d]pyrimidine-4-amine]
5 | 66% | 25% | 98% | 92% | 1.48 | CN(c1ncnc2[nH]ccc12)[C@@H]1CCN(S(=O)(=O)c2ccccc2F)C1 [Example 15, (R)—N-(1-((2-fluorophenyl)sulfonyl)pyrrolidine-3-yl)-N-methyl-7H-pyrrolo[2,3-d]pyrimidine-4-amine]
6 | 93% | 47% | 98% | 98% | 1.05 | CN(c1ncnc2[nH]ccc12)[C@@H]1CCN(S(=O)(=O)c2cccc(F)c2)C1 [Example 16, (R)—N-(1-((3-fluorophenyl)sulfonyl)pyrrolidine-3-yl)-N-methyl-7H-pyrrolo[2,3-d]pyrimidine-4-amine]
7 | 81% | 29% | 99% | 92% | 1.22 | CN(c1ncnc2[nH]ccc12)[C@@H]1CCN(S(=O)(=O)c2ccc(F)cc2)C1 [Example 17, (R)—N-(1-((4-fluorophenyl)sulfonyl)pyrrolidine-3-yl)-N-methyl-7H-pyrrolo[2,3-d]pyrimidine-4-amine]
8 | 73% | 22% | 97% | 81% | 1.33 | CN(c1ncnc2[nH]ccc12)[C@@H]1CCN(S(=O)(=O)c2ccccc2C#N)C1 [Example 18, (R)-2-((3-(methyl(7H-pyrrolo[2,3-d]pyrimidine-4-yl)amino)pyrrolidine-1-yl)sulfonyl)benzonitrile]
9 | 81% | 42% | 99% | 95% | 1.22 | CN(c1ncnc2[nH]ccc12)[C@@H]1CCN(S(=O)(=O)c2cccc(C#N)c2)C1 [Example 19, (R)-3-((3-(methyl(7H-pyrrolo[2,3-d]pyrimidine-4-yl)amino)pyrrolidine-1-yl)sulfonyl)benzonitrile]
10 | 46% | 9% | 97% | 84% | 2.11 | CN(c1ncnc2[nH]ccc12)[C@@H]1CCN(S(=O)(=O)c2ccc(C#N)cc2)C1 [Example 20, (R)-4-((3-(methyl(7H-pyrrolo[2,3-d]pyrimidine-4-yl)amino)pyrrolidine-1-yl)sulfonyl)benzonitrile]
11 | -6% | 27% | 23% | – | – | CN(c1ncnc2[nH]ccc12)[C@H]1CCN(C(=O)CC#N)C1 [Example 31, (S)-3-(3-(methyl(7H-pyrrolo[2,3-d]pyrimidine-4-yl)amino)pyrrolidine-1-yl)-3-oxopropanenitrile]

Second part, the compound before the results:

Row | SMILES | inhibition at 1 µM (Human JAK2) | inhibition at 1 µM (Human JAK3) | inhibition at 1 µM (Human JAK1) | inhibition at 1 µM (Human TYK2) | JAK1/JAK2 (Human JAK1)
12 | CN(c1ncnc2[nH]ccc12)[C@@H]1CCN(C(=O)CC#N)C1 [Example 1, (R)-3-(3-(methyl(7H-pyrrolo[2,3-d]pyrimidine-4-yl)amino)pyrrolidine-1-yl)-3-oxopropanenitrile] | 70% | 20% | 97% | – | –
13 | CN(c1ncnc2[nH]ccc12)[C@@H]1CCN(CCC#N)C1 [Example 2, (R)-3-(3-(methyl(7H-pyrrolo[2,3-d]pyrimidine-4-yl)amino)pyrrolidine-1-yl)propanenitrile] | 42% | 39% | 91% | 58% | 2.17
14 | CCCCN1CC[C@@H](N(C)c2ncnc3[nH]ccc23)C1 [Example 3, (R)—N-(1-butylpyrrolidine-3-yl)-N-methyl-7H-pyrrolo[2,3-d]pyrimidine-4-amine] | 6% | 4% | 52% | 8% | ∞
15 | CN(c1ncnc2[nH]ccc12)[C@@H]1CCN(C(=O)CN=[N+]=[N-])C1 [Example 4, (R)-2-azido-1-(3-(methyl(7H-pyrrolo[2,3-d]pyrimidine-4-yl)amino)pyrrolidine-1-yl)ethane-1-one] | 79% | 33% | 98% | 86% | 1.24
16 | CC(C)CC(=O)N1CC[C@@H](N(C)c2ncnc3[nH]ccc23)C1 [Example 5, (R)-3-methyl-1-(3-(methyl(7H-pyrrolo[2,3-d]pyrimidine-4-yl)amino)pyrrolidine-1-yl)butane-1-one] | 13% | 10% | 93% | 63% | 7.15
17 | CC(C)COC(=O)N1CC[C@@H](N(C)c2ncnc3[nH]ccc23)C1 [Example 6, Isobutyl (R)-3-(methyl(7H-pyrrolo[2,3-d]pyrimidine-4-yl)amino)pyrrolidine-1-carboxylate] | 9% | 9% | 93% | 34% | 10.33
18 | CN(c1ncnc2[nH]ccc12)[C@@H]1CCN(C(=O)Nc2ccccc2)C1 [Example 7, (R)-3-(methyl(7H-pyrrolo[2,3-d]pyrimidine-4-yl)amino)-N-phenylpyrrolidine-1-carboxamide] | 68% | 42% | 97% | 72% | 1.43
19 | CN(c1ncnc2[nH]ccc12)[C@@H]1CCN(S(C)(=O)=O)C1 [Example 8, (R)—N-methyl-N-(1-(methylsulfonyl)pyrrolidine-3-yl)-7H-pyrrolo[2,3-d]pyrimidine-4-amine] | 7% | 21% | 91% | 59% | 13.00
20 | CN(c1ncnc2[nH]ccc12)[C@@H]1CCN(S(=O)(=O)C(F)(F)F)C1 [Example 9, (R)—N-methyl-N-(1-((trifluoromethyl)sulfonyl)pyrrolidine-3-yl)-7H-pyrrolo[2,3-d]pyrimidine-4-amine] | 9% | 11% | 90% | 59% | 10.00
21 | CCS(=O)(=O)N1CC[C@@H](N(C)c2ncnc3[nH]ccc23)C1 [Example 10, (R)—N-(1-(ethylsulfonyl)pyrrolidine-3-yl)-N-methyl-7H-pyrrolo[2,3-d]pyrimidine-4-amine] | 27% | 22% | 94% | 74% | 3.48
